{"source": "patent US10370333B2", "about": "(Sanford Burnham Prebys Medical Discovery Institute, priority 2012, dated 2019)"}
{"target": "TNAP (Homo sapiens (Human), UniProt P05186)", "assay": "TNAP (PPi) inhibition assay, pyrophosphate as substrate", "format": "biochemical", "outline": "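Enzyme source was conditioned serum-free medium from COS-1 cells transiently expressing tagged human TNAP, dialyzed against TBS with MgCl2/ZnCl2. Activity on natural substrate PPi at pH 7.4 read as liberated phosphate (Biomol Green).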", "units": {"IC50": "nM"}}
{"smiles": "COc1ccc(Br)cc1S(=O)(=O)Nc1cncc(C(=O)NC2CCCCC2)c1", "note": "[Example IV-20, 5-(5-Bromo-2-methoxyphenylsulfonamido)-N-cyclohexylnicotinamide]", "IC50": "< 100"}
{"smiles": "COc1ccc(OC)c(S(=O)(=O)Nc2cncc(-c3ccc(Cl)cc3)c2)c1", "note": "[Example III-19, N-[5-(4-Chloro-phenyl)-pyridin-3-yl]-2,5-dimethoxy-benzenesulfonamide]", "IC50": "100 to 1000"}
{"smiles": "COc1ccc(Br)cc1S(=O)(=O)Nc1ccnn1C", "note": "[Example V-11, 5-Bromo-2-methoxy-N-(2-methyl-2H-pyrazol-3-yl)-benzenesulfonamide]", "IC50": "> 1000"}
{"smiles": "COc1ccc(OC)c(S(=O)(=O)Nc2cncc(-c3ccccc3)c2)c1", "note": "[Example III-25, N-(5-Phenyl-pyridin-3-yl)-2,5-Dimethoxy-benzenesulfonamide]", "IC50": "< 100"}
{"smiles": "COc1ccc(OC)c(S(=O)(=O)N(CCN(C)C)c2cnc3ccccc3c2)c1", "note": "[Example VII-19, N-(2-(Dimethylamino)ethyl)-2,5-dimethoxy-N-(quinolin-3-yl)benzenesulfonamide]", "IC50": "> 1000"}
{"smiles": "CCCNC(=O)c1ccc2ncc(NS(=O)(=O)c3cc(OC)ccc3OC)cc2c1", "note": "[Example IX-12, 3-(2,5-Dimethoxy-benzenesulfonylamino)-quinoline-6-carboxylic Acid Propylamide]", "IC50": "< 100"}
{"smiles": "COc1ccc(OC)c(S(=O)(=O)Nc2cncc(-c3cccc(C)c3)c2)c1", "note": "[Example III-49, 2,5-Dimethoxy-N-(5-m-tolyl-pyridin-3-yl)-benzenesulfonamide]", "IC50": "100 to 1000"}
{"smiles": "O=S(=O)(Nc1cncc(-c2ncccn2)c1)c1cc(Cl)ccc1OC(F)(F)F", "note": "[Example XI-23, 5-chloro-N-(5-(pyrimidin-2-yl)pyridin-3-yl)-2-(trifluoromethoxy)benzenesulfonamide]", "IC50": "> 1000"}
{"smiles": "COc1ccc(Br)cc1S(=O)(=O)Nc1cc(C)no1", "note": "[Example V-5, 5-Bromo-2-methoxy-N-(3-methyl-isoxazol-5-yl)-benzenesulfonamide]", "IC50": "100 to 1000"}
{"smiles": "COc1ccc(Br)cc1S(=O)(=O)Nc1cncc(-c2cnn(C)c2)c1", "note": "[Example III-89, 5-Bromo-2-methoxy-N-(5-(1-methyl-1H-pyrazol-4-yl)pyridin-3-yl)benzenesulfonamide]", "IC50": "< 100"}
{"smiles": "COc1ccc(OC)c(S(=O)(=O)Nc2cncc(-c3ccccc3Cl)c2)c1", "note": "[Example III-40, N-[5-(2-Chloro-phenyl)-pyridin-3-yl]-2,5-dimethoxy-benzenesulfonamide]", "IC50": "< 100"}
{"smiles": "COc1ccc(Br)cc1S(=O)(=O)Nc1cncc(-c2ccc(F)cc2)c1", "note": "[Example III-17, 5-Bromo-N-[5-(4-fluoro-phenyl)-pyridin-3-yl]-2-methoxy-benzenesulfonamide]", "IC50": "< 100"}
{"smiles": "CCCNC(=O)c1cncc(NS(=O)(=O)c2cc(OC(F)(F)F)ccc2OC)c1", "note": "[Example XII-21, 5-(2-Methoxy-5-(trifluoromethoxy)phenylsulfonamido)-N-propylnicotinamide]", "IC50": "> 1000"}
{"smiles": "COc1ccc(Br)cc1S(=O)(=O)Nc1cc[nH]n1", "note": "[Example V-7, 5-Bromo-2-methoxy-N-(1H-pyrazol-3-yl)-benzenesulfonamide]", "IC50": "> 1000"}
{"smiles": "COc1ccc(Cl)cc1S(=O)(=O)Nc1cncc(-c2ccc(Br)cc2)c1", "note": "[Example III-24, N-[5-(4-Bromo-phenyl)-pyridin-3-yl]-5-chloro-2-methoxy-benzenesulfonamide]", "IC50": "100 to 1000"}
{"smiles": "COc1ccc(-c2cncc(NS(=O)(=O)c3cc(OC)ccc3OC)c2)c(OC)c1", "note": "[Example III-55, N-(5-(2,4-Dimethoxyphenyl)pyridin-3-yl)-2,5-dimethoxybenzenesulfonamide]", "IC50": "< 100"}
{"smiles": "COc1cccc(-c2cncc(NS(=O)(=O)c3cc(Cl)ccc3OC)c2)c1", "note": "[Example III-48, 5-Chloro-2-methoxy-N-[5-(3-methoxy-phenyl)-pyridin-3-yl]-benzenesulfonamide]", "IC50": "< 100"}
{"smiles": "COC(=O)c1cncc(NS(=O)(=O)c2cc(Cl)ccc2OC(F)(F)F)c1", "note": "[Example XII-1, Methyl 5-(5-chloro-2-(trifluoromethoxy)phenylsulfonamido)nicotinate]", "IC50": "100 to 1000"}
{"smiles": "COCCNC(=O)c1cncc(NS(=O)(=O)c2cc(Cl)ccc2OC)c1", "note": "[Example IV-32, 5-(5-Chloro-2-methyoxyphenylsulfonamido)-N-(2-methoxyethyl)nicotinamide]", "IC50": "100 to 1000"}
{"smiles": "COc1ccc(Br)cc1S(=O)(=O)Nc1cncc(-c2ccc(O)cc2)c1", "note": "[Example III-8, 5-Bromo-N-[5-(4-hydroxy-phenyl)-pyridin-3-yl]-2-methoxy-benzenesulfonamide]", "IC50": "< 100"}
{"smiles": "COc1ccc(OC)c(S(=O)(=O)Nc2ccc(N(C)C)nc2)c1", "note": "[Example VIII-8, N-(6-(Dimethylamino)pyridin-3-yl)-2,5-dimethoxybenzenesulfonamide]", "IC50": "> 1000"}
{"smiles": "O=S(=O)(Nc1cncc(-c2cncs2)c1)c1cc(Cl)ccc1OC(F)(F)F", "note": "[Example XI-25, 5-Chloro-N-(5-(thiazol-5-yl)pyridin-3-yl)-2-(trifluoromethoxy)benzenesulfonamide]", "IC50": "100 to 1000"}
{"smiles": "CNC(=O)c1cncc(NS(=O)(=O)c2cc(Cl)ccc2OC(F)(F)F)c1", "note": "[Example XII-6, 5-(5-Chloro-2-(trifluoromethoxy)phenylsulfonamido)-N-methylnicotinamide]", "IC50": "100 to 1000"}
{"smiles": "O=C(Oc1ccccc1)c1cncc(NS(=O)(=O)c2cc(Br)ccc2OC(F)(F)F)c1", "note": "[Example XII-12, Phenyl 5-(5-bromo-2-(trifluoromethoxy)phenylsulfonamido)nicotinate]", "IC50": "< 100"}
{"smiles": "CCOC(=O)c1cncc(NS(=O)(=O)c2cc(Br)ccc2OC)c1", "note": "[Example IV-2, Ethyl 5-(5-bromo-2-methoxyphenylsulfonamido)nicotinate]", "IC50": "< 100"}
{"smiles": "COc1ccc(Br)cc1S(=O)(=O)Nc1nnc(C(F)(F)F)s1", "note": "[Example V-19, 5-Bromo-2-methoxy-N-(5-trifluoromethyl-[1,3,4]thiadiazol-2-yl)-benzenesulfonamide]", "IC50": "100 to 1000"}
{"smiles": "COc1ccccc1-c1cncc(NS(=O)(=O)c2cc(Br)ccc2OC)c1", "note": "[Example III-35, 5-Bromo-2-methoxy-N-[5-(2-methoxy-phenyl)-pyridin-3-yl]-benzenesulfonamide]", "IC50": "< 100"}
{"smiles": "COc1cc(C)ccc1S(=O)(=O)Nc1cnc2ccccc2c1", "note": "[Example II-3, 2-Methoxy-4-methyl-N-quinolin-3-yl-benzenesulfonamide]", "IC50": "< 100"}
{"smiles": "COc1ccc(Br)cc1S(=O)(=O)Nc1cncc(-c2ccc(OCc3ccccc3)cc2)c1", "note": "[Example III-5, N-(5-(4-(Benzyloxy)phenyl)pyridin-3-yl)-5-bromo-2-methoxybenzenesulfonamide]", "IC50": "100 to 1000"}
{"smiles": "COc1ccc(OC)c(S(=O)(=O)Nc2cncc(C(=O)N3CCOCC3)c2)c1", "note": "[Example IV-43, 2,5-Dimethoxy-N-(5-(morpholine-4-carbonyl)pyridin-3-yl)benzenesulfonamide]", "IC50": "100 to 1000"}
{"smiles": "O=S(=O)(Nc1cnc2ccccc2c1)c1cc(F)ccc1OC(F)(F)F", "note": "[Example X-2, 5-Fluoro-N-quinolin-3-yl-2-trifluoromethoxy-benzenesulfonamide]", "IC50": "100 to 1000"}
{"smiles": "COc1ccc(-c2cncc(NS(=O)(=O)c3cc(OC(F)(F)F)ccc3OC)c2)cc1", "note": "[Example XI-2, 2-Methoxy-N-(5-(4-methoxyphenyl)pyridin-3-yl)-5-(trifluoromethoxy)benzenesulfonamide]", "IC50": "< 100"}
{"smiles": "CNC(=O)c1ccc2ncc(NS(=O)(=O)c3cc(Br)ccc3OC)cc2c1", "note": "[Example IX-7, 3-(5-Bromo-2-methoxy-benzenesulfonylamino)-quinoline-6-carboxylic Acid Methylamide]", "IC50": "< 100"}
{"smiles": "CCCNC(=O)c1cncc(NS(=O)(=O)c2cc(Cl)ccc2OC(F)(F)F)c1", "note": "[Example XII-7, 5-(5-Chloro-2-(trifluoromethoxy)phenylsulfonamido)-N-propylnicotinamide]", "IC50": "> 1000"}
{"smiles": "COc1ccc(Br)cc1S(=O)(=O)Nc1cncc(-c2ccsc2)c1", "note": "[Example III-77, 5-Bromo-2-methoxy-N-(5-(thiophen-3-yl)pyridin-3-yl)benzenesulfonamide]", "IC50": "< 100"}
{"smiles": "CCOC(=O)c1cncc(NS(=O)(=O)c2cc(Cl)ccc2OC)c1", "note": "[Example IV-7, Ethyl 5-(5-chloro-2-methoxyphenylsulfonamido)nicotinate]", "IC50": "< 100"}
{"smiles": "CCCCN(c1cnc2ccccc2c1)S(=O)(=O)c1cc(OC)ccc1OC", "note": "[Example VII-15, 2,5-Dimethoxy-N-butyl-N-(quinolin-3-yl)benzenesulfonamide]", "IC50": "> 1000"}
{"smiles": "COCCNC(=O)c1ccc(OC)c(S(=O)(=O)Nc2cnc3ccccc3c2)c1", "note": "[Example II-20, 4-Methoxy-N-(2-methoxy-ethyl)-3-(quinolin-3-ylsulfamoyl)-benzamide]", "IC50": "100 to 1000"}
{"smiles": "COc1ccc(Cl)cc1S(=O)(=O)Nc1cncc(-c2ccc(OCc3ccccc3)cc2)c1", "note": "[Example III-6, N-(5-(4-(benzyloxy)phenyl)pyridin-3-yl)-5-chloro-2-methoxybenzenesulfonamide]", "IC50": "100 to 1000"}
{"smiles": "O=S(=O)(Nc1cncc(-c2ccc(OC(F)(F)F)cc2)c1)c1cc(Br)ccc1OC(F)(F)F", "note": "[Example XI-4, 5-Bromo-2-(trifluoromethoxy)-N-(5-(4-(trifluoromethoxy)phenyl)pyridin-3-yl)benzenesulfonamide]", "IC50": "100 to 1000"}
{"smiles": "COc1ccc(Cl)cc1S(=O)(=O)Nc1cncc(-c2nccs2)c1", "note": "[Example III-81, 5-Chloro-2-methoxy-N-(5-(thiazol-2-yl)pyridin-3-yl)benzenesulfonamide]", "IC50": "< 100"}
{"smiles": "COc1ccc(Br)cc1S(=O)(=O)Nc1cncc(-c2cccc(C)c2)c1", "note": "[Example III-50, 5-Bromo-2-methoxy-N-(5-m-tolyl-pyridin-3-yl)-benzenesulfonamide]", "IC50": "100 to 1000"}
{"smiles": "O=C(O)c1cncc(NS(=O)(=O)c2cc(Cl)ccc2OC(F)(F)F)c1", "IC50": "100 to 1000"}
{"smiles": "COc1ccc(C(=O)N2CCOCC2)cc1S(=O)(=O)Nc1cccnc1", "note": "[Example I-23, 2-Methoxy-5-(morpholine-4-carbonyl)-N-pyridin-3-yl-benzenesulfonamide]", "IC50": "> 1000"}
{"smiles": "COc1ccc(-c2ccsc2)cc1S(=O)(=O)Nc1cnc2ccccc2c1", "note": "[Example II-8, 2-Methoxy-N-quinolin-3-yl-5-thiophen-3-yl-benzenesulfonamide]", "IC50": "> 1000"}
